Measurements: US20100261618A1, “Identification of genes implicated in the virulence of streptococcus agalactiae” (priority 2006, published 2010)
Read-outs that look alike come from different tables or passages of the source.

Experiments:
GBS 0582 = biological target: T1, GBS 0582 (Streptococcus agalactiae, UniProt Q8E126); test: biochemical; set-up: species or system S. agalactiae
T1 sequence (Q8E126 1-311): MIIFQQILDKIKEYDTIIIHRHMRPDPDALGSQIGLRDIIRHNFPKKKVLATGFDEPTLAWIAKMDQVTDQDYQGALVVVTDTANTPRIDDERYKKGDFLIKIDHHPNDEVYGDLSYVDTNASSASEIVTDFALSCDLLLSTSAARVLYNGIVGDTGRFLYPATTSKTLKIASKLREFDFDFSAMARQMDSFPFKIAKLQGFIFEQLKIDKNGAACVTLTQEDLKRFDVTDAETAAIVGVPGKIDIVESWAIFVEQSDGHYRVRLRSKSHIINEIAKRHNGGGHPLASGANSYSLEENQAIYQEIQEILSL

GBS 0307 = GBS 0307 (Streptococcus agalactiae, UniProt Q8E1N5, T550A); test: biochemical
Chain of GBS 0307 (Q8E1N5 whole entry T550A): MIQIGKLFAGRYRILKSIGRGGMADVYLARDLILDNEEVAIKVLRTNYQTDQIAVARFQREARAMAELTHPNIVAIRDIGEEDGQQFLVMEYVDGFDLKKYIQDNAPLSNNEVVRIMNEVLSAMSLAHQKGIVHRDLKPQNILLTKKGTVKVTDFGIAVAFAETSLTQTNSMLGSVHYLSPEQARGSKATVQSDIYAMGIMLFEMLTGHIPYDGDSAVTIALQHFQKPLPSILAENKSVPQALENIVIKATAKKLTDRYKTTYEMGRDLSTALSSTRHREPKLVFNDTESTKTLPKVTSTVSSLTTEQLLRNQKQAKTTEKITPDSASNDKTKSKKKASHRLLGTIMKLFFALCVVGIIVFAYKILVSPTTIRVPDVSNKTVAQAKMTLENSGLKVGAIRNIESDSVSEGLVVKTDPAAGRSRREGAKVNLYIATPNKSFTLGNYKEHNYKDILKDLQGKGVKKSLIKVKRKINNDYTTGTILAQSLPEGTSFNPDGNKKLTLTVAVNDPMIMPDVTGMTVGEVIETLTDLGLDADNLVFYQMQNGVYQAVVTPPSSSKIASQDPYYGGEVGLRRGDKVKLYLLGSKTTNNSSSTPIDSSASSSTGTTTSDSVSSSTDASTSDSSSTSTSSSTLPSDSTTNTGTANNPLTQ

[1] = test system: S. agalactiae NEM316 wild type strain; test: Sensitivity to colistin (MIC) of the wild type strain
Description: Screening for sensitivity to cationic peptide colistin and cell wall defect of the mutant library. The S. agalactiae mutants were grown TH-Kn in 96-wells microplates over-night. Bacteria were then diluted to 1:1000 and each dilution was dispatched into two microplates. In one microplate 50 μl of TH was added, whereas 50 μl of 512 μg/ml colistin (Sigma) or 2 μg/ml novobiocin (Sigma) was added in the other thus obtaining final concentrations of 256 μg/ml and 1 μg/ml, respectively. Microplates were incubated overnight at 37° C. OD600 of microplates was read on a Multiskan Ex apparatus (Thermo).

## Nc1ncnc2c1ncn2[C@@H]1O[C@H](COP(=O)(O)OP(=O)(O)O)[C@@H](O)[C@H]1O [ADP]
GBS 0582; read-out: IC50
  IC50: 405 µM

## Nc1ncnc2c1ncn2[C@@H]1O[C@H](COP(=O)(O)O)[C@@H](O)[C@H]1O [AMP, Adenosine monophosphate]
GBS 0582
  IC50: 235 ± 45 µM

## CN[C@@H]1C[C@H]2O[C@@](C)([C@@H]1OC)n1c3ccccc3c3c4c(c5c6ccccc6n2c5c31)C(=O)NC4 [Staurosporine]
GBS 0307
  IC50: 0.023 ± 0.008 µM

## colistin
[1]
  CMI: ≤ 1024 µg/mL
